In patent publication US20230065158A1, “OXABICYCLOHEPTANES FOR TREATMENT OF SMALL CELL LUNG CANCER” (Lixte Biotechnology, Inc., priority 2021, published 2023):

How the values were obtained:
[1] = test system: H146 cells; settings: human, 72 h
Source text: (§1) To determine specific cytotoxicity, we used Cell Counting Kit-8 (Dojindo Molecular Technologies, Rockville, Md.) as previously described (50).

[2] = target: T1, PP2A (Homo sapiens, UniProt P67775); test: PP2A immunoprecipitation Ser/Thr phosphatase activity assay in treated H524 cells; type: cell-based; settings: LB-100 5 μM, 24 h, H524 cells
T1 construct: endogenous in cells; host or cells: H524 (human SCLC) cells
T1 sequence (P67775 whole entry): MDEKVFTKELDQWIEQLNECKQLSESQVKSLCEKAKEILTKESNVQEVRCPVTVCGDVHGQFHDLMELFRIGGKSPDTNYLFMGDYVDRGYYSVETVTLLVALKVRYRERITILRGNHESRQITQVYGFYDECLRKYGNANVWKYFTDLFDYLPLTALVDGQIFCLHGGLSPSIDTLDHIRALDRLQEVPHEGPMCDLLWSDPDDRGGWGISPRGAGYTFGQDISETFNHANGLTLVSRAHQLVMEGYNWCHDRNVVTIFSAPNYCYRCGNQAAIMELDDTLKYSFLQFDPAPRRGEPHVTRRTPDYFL
T1 sequence (P30153 whole entry partner): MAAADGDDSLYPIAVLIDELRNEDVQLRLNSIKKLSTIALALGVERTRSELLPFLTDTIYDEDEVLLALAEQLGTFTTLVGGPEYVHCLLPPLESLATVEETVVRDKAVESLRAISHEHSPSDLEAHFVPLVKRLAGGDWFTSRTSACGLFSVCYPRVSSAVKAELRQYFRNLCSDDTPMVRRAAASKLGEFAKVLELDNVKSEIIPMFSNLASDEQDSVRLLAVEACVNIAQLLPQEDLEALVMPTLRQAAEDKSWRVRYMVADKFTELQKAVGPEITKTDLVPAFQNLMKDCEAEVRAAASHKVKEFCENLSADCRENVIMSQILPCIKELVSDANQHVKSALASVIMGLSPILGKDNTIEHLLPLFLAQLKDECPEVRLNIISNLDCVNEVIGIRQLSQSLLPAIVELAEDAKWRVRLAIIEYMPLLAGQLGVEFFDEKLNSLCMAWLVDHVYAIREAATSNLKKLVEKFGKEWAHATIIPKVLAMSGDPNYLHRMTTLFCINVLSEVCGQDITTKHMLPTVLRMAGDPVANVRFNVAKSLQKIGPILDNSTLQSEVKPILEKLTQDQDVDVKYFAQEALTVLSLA
Procedure: FIGS. 1A-IL depict the effects of LB-100 on PP2A-A expression in SCLC tumors and cells. […] A Mann-Whitney U test was used for comparison between the normal and SCLC samples. FIG. 1B: IHC for PP2A was conducted on TMA tissue sections and images were captured at 4× or 20× using a 3D-Histech PANNORAMIC SCAN whole slide scanner (3D-Histech, Budapest, Hungary). […] TMAs were scored in normal (n=24) and tumor (n=79) cores on a scale from 0 (no staining/no protein expression) to 3+(strong staining/high protein expression). FIG. 1C: Summary bar graph of the average PP2A subunit staining. IHC staining intensity of normal and tumor cores. There was a statistically significant difference between normal and tumor tissue (p<0.001). FIG. 1D: In order to compare the expression of PP2A subunits A and C, cell lysates from seven SCLC cell lines and HBEC 3KT (non-malignant cell line) were subjected to western blotting. FIG. 1E: PP2A activity was determined using a serine/threonine phosphatase activity assay (Millipore) after 24 h exposure to cantharidin (10 μM) and LB-100 (5 μM). […] LB-100 alone or in combination with carboplatin inhibited proliferation and colony formation in SCLC cells. The Cell Counting Kit-8 assay detected cell H524 and H69 cell viability. […] FIGS. 1I-1K: Graphs depict the mean+SEM of percent viability for cells (n=3). […]

[3] = test system: H446 cells; settings: human, 72 h
Source text: as §1

[4] = test system: H524 cells; test: Seahorse XF Cell Energy Phenotype Test; type: cell-based; settings: LB100 2.5 μM
Procedure: FIGS. 5A-5F depict the effect of LB-100 on cell energy phenotype in SCLC cells. FIG. 5A: LB100 treatment (2.5 μM) induced metabolic switch in H524 cells. Cell energy phenotype was obtained by using XF Cell Energy Phenotype Reporter Generator. Empty squares indicate baseline energy phenotype, solid squares represent stressed energy phenotype measured after oligomycin/FCCP injection. FIGS. 5B and 5C: OCR and ECARin control (blue circles) and LB-100 (orange circles) H524 cells were measured overtime. (n=2, six different wells for each […]). FIG. 5D: Effect of LB-100 (10 μM) on H69 cell energy phenotype. FIGS. 5E and 5F: Effect of mitochondrial stressor on OCR and ECAR in H69 cells. Blue circles indicate control and orange circles show LB-100 treatment. (n=2, six technical replicates).
Next, we determined the effect of LB100 on ATP production in SCLC cells employing the Seahorse XF Cell Energy Phenotype Test. […] After drug treatment, we counted the number of cells and examined them for viability using exclusion of trypan blue as a readout. Cellular basal oxygen consumption rate (OCR) and extra-cellular acidification rate (ECAR) measurements were determined on a Seahorse XF96 analyzer. […]

[5] = test system: H82 cells; test: Cell Counting Kit-8 cytotoxicity, H82; settings: read-out: Cytotoxicity IC50; H82; 72 hours
Source text: as §1

C[NH+]1CCN(C(=O)C2C(C(=O)O)[C@H]3CC[C@@H]2O3)CC1 (stereo in doubt) [LB-100, 3-[(4-Methylpiperazin-1-yl)carbonyl]-7-oxabicyclo[2.2.1]heptane-2-carboxylic acid]
IC50 [1]: > 20 µM
phosphatase activity inhibited to [2]: 65%
IC50 [3]: 6.9 µM
basal OCR lower compared to untreated cells [4]: 4 fold

N.N.O=C([O-])C1(C(=O)[O-])CCC1.[Pt+2] [Carboplatin, reference compound]
IC50 [5]: 46.5 µM
